The structures appear in SMILES notation.

For 19 compounds, IC50 results are on record in US20240360104A1, “TRANSCRIPTIONAL ENHANCED ASSOCIATED DOMAIN (TEAD) TRANSCRIPTION FACTOR INHIBITORS AND USES THEREOF” (Dana-Farber Cancer Institute, Inc., priority 2021, published 2024).

In one assay the test system is NCI-H226 cells. Briefly: Antiproliferation assay on NCI-H226 cells (CellTiter-Glo, 5-day treatment). The class given is cell-based. The note with it: Homo sapiens, 120 h, 200 cells/well, 384 plate. The procedure:
Example 1. Antiproliferation Assay on NCI-H226 Cells (200 Cells/Well, 384 Plate, 5-Day Treatment)
The compounds of the disclosure were tested for their ability in an antiproliferation assay using NCI-H226 cells (FIG. 6 and FIG. 7). The following table summarizes the IC50 values calculated from the graph of the percent inhibition versus the log of the concentration of representative compounds of the disclosure.
For 2D adherent cell viability experiment, the cells were seeded at 384-well plate (Corning, no. 3570) at the density of 200 cells/well (FIGS. 1-7). The next day, compounds were added using Janus workstation (PerkinElmer). After 5 days treatment, the cell viability was measured by CellTiter-Glo kit (Promega, no. G7570) as the manufacturer recommended.
On the technique in general: In ATP-based viability assays light output follows the ATP content of the culture.
What is called IC50 is the concentration needed to halve the response being measured. For `C=CC(=O)N1C[C@@H](Nc2ncccn2)[C@H](OCc2ccc(C(F)(F)F)cc2)C1` (relative stereo) [Compound I-1, 1-(trans-3-(pyrimidin-2-ylamino)-4-(4-(trifluoromethyl)benzyloxy)pyrrolidin-1-yl)prop-2-en-1-one], inhibition was half-maximal at 36 nM (IC50).
The same measure, in the same setting: the figure for `C=CC(=O)N1C[C@@H](NS(=O)(=O)c2c(C)noc2C)[C@H](OCc2ccc(C(F)(F)F)cc2)C1` (relative stereo) [Compound V-5, N-(trans-1-acryloyl-4-(4-(trifluoromethyl)benzyloxy)pyrrolidin-3-yl)-3,5-dimethylisoxazole-4-sulfonamide] is 954 nM; for `C=CC(=O)N1C[C@@H](NS(=O)(=O)c2cccc(C#N)c2)[C@H](OCc2ccc(C(F)(F)F)cc2)C1` (relative stereo) [Compound V-6, N-(trans-1-acryloyl-4-(4-(trifluoromethyl)benzyloxy)pyrrolidin-3-yl)-3-cyanobenzenesulfonamide] it is 543 nM.
For the compound `C=CC(=O)N1C[C@@H](n2cc(C(N)=O)nn2)[C@H](OCc2ccc(C(F)(F)F)cc2)C1` (relative stereo) [II-1, 1-(trans-1-acryloyl-4-(4-(trifluoromethyl)benzyloxy)pyrrolidin-3-yl)-1H-1,2,3-triazole-4-carboxamide], the IC50 was found to be 580 nM.
Same read-out and setting: the figure for `C=CC(=O)N1C[C@@H](n2cc(C(=O)NC)nn2)[C@H](OCc2ccc(C(F)(F)F)cc2)C1` (relative stereo) [II-2, 1-(trans-1-acryloyl-4-(4-(trifluoromethyl)benzyloxy)pyrrolidin-3-yl)-N-methyl-1H-1,2,3-triazole-4-carboxamide] is 461 nM.
Turning to `C=CC(=O)N1C[C@@H](n2cc(-c3cncc(N)c3)nn2)[C@H](OCc2ccc(C(F)(F)F)cc2)C1` (relative stereo) [II-5, 1-(trans-3-(4-(5-aminopyridin-3-yl)-1H-1,2,3-triazol-1-yl)-4-(4-(trifluoromethyl)benzyloxy)pyrrolidin-1-yl)prop-2-en-1-one], the IC50 worked out at 172 nM.
On the same count and under the same terms, next, `C=CC(=O)N1C[C@@H](n2cc(-c3ccc(N)nc3)nn2)[C@H](OCc2ccc(C(F)(F)F)cc2)C1` (relative stereo) [II-6, 1-(trans-3-(4-(6-aminopyridin-3-yl)-1H-1,2,3-triazol-1-yl)-4-(4-(trifluoromethyl)benzyloxy)pyrrolidin-1-yl)prop-2-en-1-one]: 112 nM; `C=CC(=O)N1C[C@@H](n2cc(-c3cccc(C#N)c3)nn2)[C@H](OCc2ccc(C(F)(F)F)cc2)C1` (relative stereo) [II-7, 3-(1-(trans-1-acryloyl-4-(4-(trifluoromethyl)benzyloxy)pyrrolidin-3-yl)-1H-1,2,3-triazol-4-yl)benzonitrile]: 377 nM; `C=CC(=O)N1C[C@@H](n2cc(C3CCN(C)CC3)nn2)[C@H](OCc2ccc(C(F)(F)F)cc2)C1` (relative stereo) [II-19, 1-(trans-3-(4-(1-methylpiperidin-4-yl)-1H-1,2,3-triazol-1-yl)-4-(4-(trifluoromethyl)benzyloxy)pyrrolidin-1-yl)prop-2-en-1-one]: 193 nM.
`C=CC(=O)N1C[C@@H](n2ccc(C(=O)NC)n2)[C@H](OCc2ccc(C(F)(F)F)cc2)C1` (relative stereo) [IV-5, 1-(trans-1-acryloyl-4-(4-(trifluoromethyl)benzyloxy)pyrrolidin-3-yl)-N-methyl-1H-pyrazole-3-carboxamide] yielded an IC50 of 490 nM.
The same measure, in the same setting: the figure for `C=CC(=O)N1C[C@@H](n2nc(-c3cnn(C)c3)ccc2=O)[C@H](OCc2ccc(C(F)(F)F)cc2)C1` (relative stereo) [VI-2, 2-(trans-1-acryloyl-4-(4-(trifluoromethyl)benzyloxy)pyrrolidin-3-yl)-6-(1-methyl-1H-pyrazol-4-yl)pyridazin-3(2H)-one] is 99 nM; for `C=CC(=O)N1C[C@@H](n2ncc(-c3cnn(C)c3)cc2=O)[C@H](OCc2ccc(C(F)(F)F)cc2)C1` (relative stereo) [VI-3, 2-(trans-1-acryloyl-4-((4-(trifluoromethyl)benzyl)oxy)pyrrolidin-3-yl)-5-(1-methyl-1H-pyrazol-4-yl)pyridazin-3(2H)-one] it is 41 nM; for `C=CC(=O)N1C[C@@H](OCc2ccc(C(F)(F)F)cc2)[C@H](c2ccc(S(C)(=O)=O)cc2)C1` (relative stereo) [VII-1, 1-(trans-3-(4-(methylsulfonyl)phenyl)-4-(4-(trifluoromethyl)benzyloxy)pyrrolidin-1-yl)prop-2-en-1-one] it is 168 nM.
Same read-out and setting: next, `C=CC(=O)N1C[C@@H](Nc2ccncn2)[C@H](OCc2ccc(C(F)(F)F)cc2)C1` (relative stereo) [VII-11, 1-(trans-3-(pyrimidin-4-ylamino)-4-(4-(trifluoromethyl)benzyloxy)pyrrolidin-1-yl)prop-2-en-1-one]: 189 nM; `C=C(F)C(=O)N1C[C@@H](Nc2ncccn2)[C@H](OCc2ccc(C(F)(F)F)cc2)C1` [Compound I-9, 2-fluoro-1-((3R, 4R)-3-(pyrimidin-2-ylamino)-4-(4-(trifluoromethyl)benzyloxy)pyrrolidin-1-yl)prop-2-en-1-one]: 23 nM; `C=CC(=O)N1C[C@@H](NS(=O)(=O)c2cccnc2)[C@H](OCc2ccc(C(F)(F)F)cc2)C1` [Compound V-1]: 380 nM.
Still for that read-out and setting: next, `C=CC(=O)N1C[C@@H](n2ccnn2)[C@H](OCc2ccc(C(F)(F)F)cc2)C1` [II-8]: 78 nM.
The compound `C#Cc1ccc(CO[C@@H]2CN(C(=O)C=C)C[C@H]2n2cc(-c3cccnc3)nn2)cc1` [III-6, 1-((3R,4R)-3-(4-ethynylbenzyloxy)-4-(4-(pyridin-3-yl)-1H-1,2,3-triazol-1-yl)pyrrolidin-1-yl)prop-2-en-1-one] returned an IC50 of 256 nM.
On the same count and under the same terms, the figure for `C=CC(=O)N1C[C@@H](OCc2ccc(C(F)(F)F)cc2)[C@H](c2cccc(S(C)(=O)=O)c2)C1` [VII-2] is 256 nM.

The next assay relates to H2052 cells. The assay is described as follows: Antiproliferation assay using H2052 cells. The class given is cell-based. The following applies: Homo sapiens, NCI-H2052; H2052 cells (FIG. 2).
For `C=CC(=O)N1C[C@@H](n2ccnn2)[C@H](OCc2ccc(C(F)(F)F)cc2)C1` [II-8], the IC50 stood at 142 nM.
